# In patent US11000604B2, “Reagent for site-selective bioconjugation of proteins or antibodies” (Research Foundation of the City University of New York, priority 2017, dated 2021):
# Experiments:
# Format in all cases: physicochemical
# [1] = Reaction of PODS with model thiol Boc-L-cysteine (with TCEP); details: pH 7.5, TCEP
# Procedure: In order to study the reactivity of PODS with thiols, Boc-L-cysteine was used as a model thiol in conjunction with the mild reducing agent tris(2-carboxyethyl)phosphine (TCEP), whose role was the reduction of any latent cystine species in solution (FIG. 2).
# (§1) The reaction between PODS and Boc-L-cysteine was quantitative in less than 2 minutes at pH 7.5. See FIG. 3A, FIG. 3B and FIG. 3C. In a move toward a model closer to proteins and peptides, a tripeptide containing a central cysteine—glutathione—was reacted with PODS as well. Again, the conjugation reaction reached completion before the first measurement could be acquired (<3 min at pH 7.5).
# [2] = Stability of PODS solutions in DMSO; details: solution in DMSO, room temperature
# Procedure: All intermediates were obtained in >95% purity using minimal equipment and simple procedures without chromatographic purifications. The methyl thioether 1 was obtained quantitatively via the methylation of the thiol with methyl iodide; unfortunately, we were not able to replace the use of the toxic methyl iodide with any safer reagent. The coupling between 1 and the carboxylic acid-bearing PEG chain was performed using EDCI as a coupling agent. Overnight reaction at room temperature led to the complete consumption of the starting material but also the formation of degradation products. It was possible to separate 2 from the two unidentified impurities by precipitating it with a mixture of ethyl acetate and cyclohexane. The oxidation of 2 was performed using the peracid mCPBA. This lead to the formation of the methylsulfone 3 with a yield of 90%. Finally, PODS was obtained from 3 after the quantitative deprotection of the terminal amine using a solution of trifluoroacetic acid in dichloromethane. Solutions of PODS in DMSO were stable at room temperature and have been kept at room temperature for 5 months without any noticeable signs of degradation.
# [3] = Reaction of PODS with glutathione; details: pH 7.5
# Procedure: as §1
compound,measurement,setting,value
"CS(=O)(=O)c1nnc(-c2ccc(NC(=O)CCC(=O)NCCCOCCOCCOCCCN)cc2)o1 [PODS, N^1-(3-(2-(2-(3-Aminopropoxy)ethoxy)ethoxy)propyl)-N′-(4-(5-(methylsulfonyl)-1,3,4 oxadiazol-2-yl)phenyl)succinamide]",time to quantitative reaction with Boc-L-cysteine,[1],less than 2 minutes
same,time kept without any noticeable signs of degradation,[2],≥ 5 months
same,time to completion of conjugation reaction with glutathione,[3],< 3 min
